Laboratory results: paper PMC2912279, “Calycosin Promotes Angiogenesis Involving Estrogen Receptor and Mitogen-Activated Protein Kinase (MAPK) Signaling Pathway in Zebrafish and HUVEC” (PLoS ONE, 2010)

Columns and labels:
[1] = test system: zebrafish embryos; test: Toxicity (highest non-toxic dose) in zebrafish embryos; assay type: in vivo; settings: 72 hpf for 24 h
Experimental: (§1) Zebrafish embryos were generated by natural pair-wise mating (3–12 months old) and were raised at 28.5°C in embyro water. Healthy, hatched zebrafish were picked out at 3 dpf and distributed into a 12-well microplate with 10 to 15 fish in each well. Different concentrations (10, 30, 100 µM) of calycosin, raloxifene or tamoxifen solutions were then added to wells and incubated at 28°C for 24 h. Embryos receiving DMSO (0.1%) served as vehicle controls and were equivalent to no treatment. Each experiment was repeated at least three times, with 30 embryos per group. VTKI was dissolved in DMSO as stock. Zebrafish embryos, Tg(fli-1:EGFP) and Tg(fli-1:nEGFP), were treated with inhibitor dissolved in embryo water from 3 dpf at the concentration indicated, controlled by DMSO treated embryos. Embryos were maintained using standard methods.
(§2) At 96 hpf, zebrafish were removed from microplates and observed for viability and gross morphological changes under a fluorescence microscope (Olympus IX81 Motorized Inverted Microscope, Japan) equipped with a digital camera (DP controller, Soft Imaging System, Olympus). Images were analyzed with Axiovision 4.2 and Adobe Photoshop 7.0.

[2] = test system: subintestinal vein vessels (SIVs) of Tg(fli1:EGFP) zebrafish embryos; test: Blood vessel formation (SIV diameter/morphology) in Tg(fli1:EGFP) zebrafish embryos; assay type: in vivo; settings: for angiogenic effect in SIVs, comparison with classical SERMs: raloxifene 10 µM, tamoxifen 3 µM, 17-βEstradiol 10 µM, calycosin 100 µM
Experimental: as §1, with “Different concentrations (10, 30, 100 µM) of calycosin, raloxifene or tamoxifen solutions were then added to wells and incubated at 28°C for 24 h.” left out
as §2
Three random points in SIVs of Tg(fli1:EGFP) zebrafish embryos were chosen for vessel diameter measurement using AxiovisionLE 4.1. Numbers of endothelial cells in SIVs of Tg(fli1:nEGFP) zebrafish embryos were assessed by direct counting of the total number of green light points. Each green light point represents one endothelial cell (GFP+).

[3] = test system: HUVEC; test: HUVEC viability/proliferation by XTT assay; assay type: cell-based, Human; settings: P<0.05
[4] = biological target: T1, ERβ (Homo sapiens, UniProt Q92731)
Target sequence in this assay (Q92731 264-498 limits assumed): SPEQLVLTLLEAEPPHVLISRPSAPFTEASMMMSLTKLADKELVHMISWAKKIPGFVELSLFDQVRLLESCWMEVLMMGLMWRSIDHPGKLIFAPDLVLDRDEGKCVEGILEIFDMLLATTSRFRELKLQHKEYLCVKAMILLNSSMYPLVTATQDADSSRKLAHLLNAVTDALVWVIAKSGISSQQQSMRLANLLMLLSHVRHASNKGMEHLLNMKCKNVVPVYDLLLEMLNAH

[5] = biological target: T2, ERα (Homo sapiens, UniProt P03372); test: GeneBLAzer β-lactamase reporter-gene assay, antagonist activity against E2, ERα-UAS-bla GripTite cells; settings: in presence of EC80 of 17-β-estradiol
T2 sequence (P03372 311-547 limits assumed): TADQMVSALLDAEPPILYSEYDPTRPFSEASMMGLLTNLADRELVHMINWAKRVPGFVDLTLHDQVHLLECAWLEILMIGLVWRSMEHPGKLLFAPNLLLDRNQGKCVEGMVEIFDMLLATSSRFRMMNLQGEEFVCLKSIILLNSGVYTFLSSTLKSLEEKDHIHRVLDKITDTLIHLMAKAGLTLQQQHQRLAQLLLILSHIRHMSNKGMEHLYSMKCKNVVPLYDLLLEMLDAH

[6] = biological target: T1, ERβ; test: biochemical
Experimental: (§3) The binding affinity of calycosin to ER-α and β was evaluated by the commercially available competitor assay (Invitrogen, Carlasbad, CA) according to the manufacturer's instructions. In brief, ER was added to fluorescently tagged ER ligand (Fluormone™ ES2) to form ER/Fluormone™ ES2 complexes with a high fluorescent polarization value. Displacement of fluorescently tagged ligands by unlabeled ligands decreased fluorescent polarization, resulting in a low value. In this system, changes in intensity of polarization reflect displacement of fluorescently tagged ligands. […] Plates were incubated at room temperature for 2 h and fluorescent polarization values measured using a Multilabel Counter (Perkin Elmer, Singapore).
Target sequence in this assay (Q92731 whole entry): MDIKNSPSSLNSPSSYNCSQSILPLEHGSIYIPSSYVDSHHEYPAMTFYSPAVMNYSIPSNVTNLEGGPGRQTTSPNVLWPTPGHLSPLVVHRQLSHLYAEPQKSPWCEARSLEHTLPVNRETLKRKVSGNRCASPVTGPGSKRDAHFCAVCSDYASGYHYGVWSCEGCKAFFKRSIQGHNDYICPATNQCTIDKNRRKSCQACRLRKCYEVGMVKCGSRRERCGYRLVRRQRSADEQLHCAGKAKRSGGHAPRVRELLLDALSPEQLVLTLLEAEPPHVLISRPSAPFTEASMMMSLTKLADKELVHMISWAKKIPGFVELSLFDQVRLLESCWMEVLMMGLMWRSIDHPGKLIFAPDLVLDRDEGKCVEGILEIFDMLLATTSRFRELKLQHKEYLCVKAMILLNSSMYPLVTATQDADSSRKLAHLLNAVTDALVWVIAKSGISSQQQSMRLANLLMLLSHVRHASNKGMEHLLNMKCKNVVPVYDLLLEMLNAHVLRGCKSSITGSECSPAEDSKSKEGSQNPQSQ

[7] = biological target: T3, ERα (Homo sapiens, UniProt P03372); test: ER fluorescence polarization competitive binding assay (Fluormone ES2 displacement), ERα
T3 construct: purchased Invitrogen
T3 sequence (P03372 1-595): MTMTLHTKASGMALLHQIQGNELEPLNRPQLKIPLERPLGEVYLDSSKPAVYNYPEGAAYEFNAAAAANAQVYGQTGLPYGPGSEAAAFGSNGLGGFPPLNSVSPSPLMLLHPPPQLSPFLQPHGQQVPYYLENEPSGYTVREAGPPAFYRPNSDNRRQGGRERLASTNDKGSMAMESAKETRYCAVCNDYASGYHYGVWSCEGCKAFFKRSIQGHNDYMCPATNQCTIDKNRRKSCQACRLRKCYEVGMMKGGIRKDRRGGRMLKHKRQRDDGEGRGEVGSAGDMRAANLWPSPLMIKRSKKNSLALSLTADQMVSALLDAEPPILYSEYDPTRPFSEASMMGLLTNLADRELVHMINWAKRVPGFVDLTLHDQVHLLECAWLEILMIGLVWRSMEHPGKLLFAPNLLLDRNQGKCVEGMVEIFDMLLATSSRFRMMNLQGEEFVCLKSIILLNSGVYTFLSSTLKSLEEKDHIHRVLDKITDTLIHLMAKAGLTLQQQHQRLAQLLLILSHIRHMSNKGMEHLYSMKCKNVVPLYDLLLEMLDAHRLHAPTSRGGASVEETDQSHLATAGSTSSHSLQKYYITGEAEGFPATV
Experimental: as §3

[8] = test system: endothelial cells in SIVs of Tg(fli1:nEGFP) zebrafish embryos; test: Endothelial cell number in SIVs of Tg(fli1:nEGFP) zebrafish embryos; assay type: in vivo; settings: calycosin 10, 30, 100 µM, 72 hpf for 24 h; SIV region
Experimental: as §1, with “Embryos were maintained using standard methods.” left out
as §2
Three random points in SIVs of Tg(fli1:EGFP) zebrafish embryos were chosen for vessel diameter measurement using AxiovisionLE 4.1. Numbers of endothelial cells in SIVs of Tg(fli1:nEGFP) zebrafish embryos were assessed by direct counting of the total number of green light points. […]

[9] = test system: VEGFA, VEGFR1, Flk1A, Flk1B mRNA; test: mRNA expression in calycosin treated zebrafish by real-time PCR; assay type: in vivo; settings: 100 µM, 6 h
Experimental: Zebrafish embryos at 72 hpf were treated with calycosin for 6 h. Total RNA was extracted from 30 zebrafish embryos of each treatment group using the RNeasy Mini Kit (Qiagen, USA) in accordance with the manufacturer's instructions. RNA was reverse transcribed to single-strand cDNA using SuperScript™ III First-Strand Synthesis System for RT–PCR (Invitrogen™, USA), followed by real-time PCR using the TaqMan® Universal PCR Master Mix and 250 nM custom TaqMan primers for zebrafish Flk1A, Flk1B, VEGFR1, VEGFA2 (Applied Biosystems, USA) in the ABI 7500 Real-Time PCR System (Applied Biosystems). The expression of Flk1A, VEGFA2 mRNA was normalized to the amount of bactin1, using the relative quantification method described by the manufacturer.
The zebrafish bactin1 primers were 5′-[…]-3′ (F) and 5′-[…]-3′(R) (Applied Biosystems, USA).
The zebrafish Flk1A (kdrl) primers were 5′- […]-3′ (F) and 5′- […]-3′(R) (Applied Biosystems, USA).
The zebrafish Flk1B (kdr) primers were 5′- […]-3′ (F) and 5′-[…]-3′(R) (Applied Biosystems, USA).
The zebrafish FLT1 primers were 5′-[…]-3′ (F) and 5′-[…]-3′(R) (Applied Biosystems, USA).
The zebrafish VEGFA2 primers were 5′-[…]-3′ (F) and 5′-[…]-3′ (R) (Applied Biosystems, USA).

[10] = test system: ERK1/2; test: Western blotting of phospho-ERK1/2 in HUVEC; assay type: cell-based, Human
[11] = biological target: T1, ERβ; settings: percentage of maximum activation induced by 17-β-estradiol (10 µM)
Target sequence in this assay (Q92731 264-498 limits assumed): as the sequence (Q92731 264-498 limits assumed) above

[12] = biological target: T2, ERα; test: GeneBLAzer β-lactamase reporter-gene assay, agonist activity, ERα-UAS-bla GripTite cells

## CC/C(=C(\c1ccccc1)c1ccc(OCCN(C)C)cc1)c1ccccc1 [tamoxifen]
[1]
  highest non-toxic dose in zebrafish embryos: 3 µM
[2]; 72 hpf for 24 h
  angiogenic effect in SIVs, comparison with classical SERMs: no obvious changes

## COc1ccc(-c2coc3cc(O)ccc3c2=O)cc1O [calycosin]
[3]; calycosin 100 µM, Fig. 9A experiment
  promotion of HUVEC proliferation: 67%
[4]
  reduction in IC50 value at ERβ compared with ERα: 2 fold
[4]; antagonist activity assay
  increase in maximal inhibition at ERβ compared with ERα: 2 fold
[4]; in presence of EC80 of 17-β-estradiol
  maximum inhibition against E2 at ERβ: 82%
[5]
  maximum inhibition against E2 at ERα: 46%
[6]
  IC50: 32.4 µM
[7]; binding to ERα and ERβ
  IC50 value relative to that of E2 (higher): approximately 10^4 fold
[7]; displacement of Fluormone ES2, 2 h room temperature
  IC50: 58.1 µM
[8]
  increase in endothelial cells population compared with the control: approximately 1.5 times
[9]; embryos at 72 hpf, increase trend
  VEGFA mRNA expression level compared to the control: 1.2 fold
[9]; P<0.001
  Flk1A mRNA expression increase: 0.8 fold
  Flk1B mRNA expression increase: 0.9 fold
  VEGFR1 mRNA expression increase: 1.1 fold
[10]; calycosin 100 µM
  time at which phosphorylation of ERK1/2 reached a plateau: 30 to 60 min
[10]; calycosin 10, 30, 100 µM for 30 min, maximum at 100 µM
  phosphorylation of ERK1/2, concentration dependence: enhanced in a dose-dependent manner
[11]
  maximum agonistic activity at ERβ: 8.6%
[2]; calycosin 10, 30, 100 µM, 72 hpf to 96 hpf, vs 0.1% DMSO control, P<0.05 and P<0.001
  diameter of SIVs: increased in a dose-dependent manner
[2]; 72 hpf for 24 h
  angiogenic effect in SIVs, comparison with classical SERMs: significant angiogenic effect
[12]
  EC50: 2.47 µM
[12]; agonist activity assay
  increase in maximal activation at ERα compared with ERβ: 2 fold
  reduction in EC50 value at ERα compared with ERβ (ERα selectivity): 2 fold
[12]; percentage of maximum activation induced by 17-β-estradiol (10 µM)
  maximum agonistic activity at ERα: 14.6%

## O=C(c1ccc(OCCN2CCCCC2)cc1)c1c(-c2ccc(O)cc2)sc2cc(O)ccc12 [raloxifene]
[1]
  highest non-toxic dose in zebrafish embryos: 10 µM
[2]; 72 hpf for 24 h
  angiogenic effect in SIVs, comparison with classical SERMs: no obvious changes

## C[C@]12CC[C@@H]3c4ccc(O)cc4CC[C@H]3[C@@H]1CC[C@@H]2O [E2, 17-β-estradiol]
[1]
  highest non-toxic dose in zebrafish embryos: 10 µM
[2]; 72 hpf for 24 h
  angiogenic effect in SIVs, comparison with classical SERMs: no obvious changes

## C[C@]12CC[C@@H]3c4ccc(O)cc4C[C@@H](CCCCCCCCC[S+]([O-])CCCC(F)(F)C(F)(F)F)[C@H]3[C@@H]1CC[C@@H]2O (stereo partly drawn) [ICI182, 780, reference compound]
[3]; pre-treatment with ER inhibitor 30 µM before calycosin 100 µM
  reduction of calycosin-induced HUVEC proliferation: 40%
[10]; ICI182, 780 30 µM, calycosin 100 µM
  effect on calycosin-induced phosphorylation of ERK1/2: suppressed phosphorylation of ERK1/2 to control levels

## O=C(Nc1ccc(Cl)cc1)c1ccccc1NCc1ccncc1 [VRI]
[2]; VRI 100 ng/ml with calycosin 100 µM, 72 hpf for 24 h
  effect on calycosin-induced angiogenesis (SIV diameter and endothelial cell number): sufficient to reverse the calycosin-induced angiogenic effects to control levels
[2]; VRI 100 ng/ml, 72 hpf for 24 h
  effect on angiogenesis in zebrafish embryonic development, inhibitor alone, low concentration: no effect
[2]; VRI 1 µg/ml, 72 hpf for 24 h
  effect on angiogenesis in zebrafish embryonic development, inhibitor alone, high concentration: caused significant (P<0.001) defects in angiogenesis
